Measured values: BindingDB's records for doi:10.1021/jm990383f (Upjohn, 2000)

How the values were obtained:
[1] = biological target: T1, Gag-Pol polyprotein [588-1027]/[588-1147] (Human immunodeficiency virus 1, UniProt P04585); experiment: HIV-1 RT Assay; conditions: pH 8.3; 28 °C
T1 construct: 588-1027; 588-1147
Description: (§1) The IC50 of reverse transcriptase is the concentration that inhibits 50% of recombinant HIV-1 RT RNA-directed DNA polymerase activity in vitro.

[2] = biological target: T2, Gag-Pol polyprotein [588-1027,P823L]/[588-1147,P823L] (Human immunodeficiency virus 1, UniProt P04585, P823L); experiment: HIV-1 RT Assay; conditions: pH 8.3; 28 °C
T2 construct: 588-1027; 588-1147
Description: as §1

| SMILES | IC50 [1] [µM] | IC50 [2] [µM] |
| --- | --- | --- |
| CCc1c(CCO)nn(-c2ccccc2)c1-c1ccccc1 [1,5-Diphenyl-3-(2-hydroxyethyl)-4-ethylpyrazole] | > 50 | – |
| C#CCc1c(C)nn(-c2ccccc2)c1-c1ccccc1 [3-methyl-1,5-diphenyl-4-(prop-2-yn-1-yl)-1H-pyrazole] | 13.4 | 1.54 |
